Reference: article PMC7153038, “Pharmacologic inhibition of RGD‐binding integrins ameliorates fibrosis and improves function following kidney injury” (Physiological Reports, 2020)

Test system: pro-fibrotic gene expression in kidney
Assay: aristolochic acid kidney injury model, kidney qRT-PCR
Format: in vivo, mouse
Conditions: AA-injured, 100 mg/kg/day s.c. minipump, day 27; vehicle 32-fold
Experimental: Alzet osmotic minipumps (Cupertino, CA) were implanted subcutaneously in 8‐ to 10‐week‐old wild‐type male ICR outbred mice (Envigo) one day prior to induction of kidney injury to deliver vehicle (DMSO/H2O 1:1) or CWHM‐12 at a dose of 100 mg/kg per day. A single 5 mg/kg dose of aristolochic acid I sodium salt (Sigma‐Aldrich, A9451) in PBS was administered intraperitoneally to induce kidney injury, and mice were monitored daily for 27 days thereafter. Control (uninjured) mice were injected with an equal volume of PBS. Blood was obtained by maxillary vein puncture on days 0, 5 (peak injury), and 28 (study endpoint). For testing CWHM‐680, oral gavage (100 mg/kg per day) was started one day prior to injection of aristolochic acid I sodium salt and continued once daily until the study endpoint. Blood was obtained at days 0, 7, and 23 (study endpoint). […] Serum creatinine was measured by liquid chromatography–mass spectrometry (LC–MS/MS) at the University of Alabama O’Brien Center Bioanalytical Core. CWHM‐12 and CWHM‐680 concentrations were measured in plasma samples by liquid chromatography–tandem mass spectrometry (LC/MS/MS) using compound spiked into control plasma as a standard. All experiments were performed under protocols approved by the Institutional Animal Care and Use Committee at St. Louis University. […]

CC(C)(C)c1cc(Br)cc([C@H](CC(=O)O)NC(=O)CNC(=O)c2cc(O)cc(NC3=NCC(O)CN3)c2)c1 (stereo partly shown) [CWHM‐12]
Col1a1 mRNA expression increase by qRT-PCR compared with uninjured animals: 9 fold
